Results on 16 compounds are retold here after patent US5521311A, “5-aminoacetylaminosulfonanilide compounds” (Taisho Pharmaceutical Co., Ltd., priority 1993, dated 1996).

In test [1] the test system is adjuvant arthritis pain (squeaking response). Nature of the test: Adjuvant arthritis (pain) test. It is filed as in vivo, Lewis strain rats. The conditions noted are these: squeaking response over 5 hours after oral administration.
In the next test the test system is adjuvant arthritis. Nature of the test: Adjuvant arthritis (therapy) test. The class given is in vivo, Lewis strain rats. The conditions noted are these: foot volume on the day after final administration. On the procedure:
Experiment 2 [Adjuvant arthritis (therapy) test]
An adjuvant arthritis (therapy) test was carried out according to the method of Winder et al [Arthritis Rheum., vol. 12, page 472 (1969)].
Seven Lewis strain rats (for each group) were administered subcutaneously 0.7% Mycobacterium tuberculosis suspended in liquid paraffin into the left hind foot pad to induce adjuvant arthritis. 15 to 18 Days after the administration of adjuvant, rats with fully developed arthritis were administered orally with test drugs [the compound (a), (b), (i), (j), (k) and (m) of the present invention]and the control drug (indomethacin), each suspended in 5% aqueous gum arabic solution in an amount of 1 ml per 100 g of body weight once a day for 4 days.
On the day after the final administration, the volume of the foot was determined, and the edema inhibition rate (%) was calculated for the therapeutical effect. Doses of the test drugs were each 0.5 mg/kg, and dose of the control drug (indomethacin) was 1.0 mg/kg.

A further test deals with carrageenin foot edema. Nature of the test: Carrageenin foot edema test. It is filed as in vivo, Wister strain rats. Particulars: for inhibition in vivo at 1 mg/kg / inhibition in vivo at 0.5 mg/kg: Rattus norvegicus, po, 3 h, read-out: Edema Inhibition rate; for inhibition in vivo at 0.5 mg/kg: *: dose of 0.5 mg/kg, orally. The protocol: Experiment 1 [Carrageenin foot edema test]
A carrageenin foot edema test was carried out according to the method of Winter et al [Proc. Soc. Exp. Biol. Med., vol. 111, page 544 (1962)].
Six Wister strain rats (for each group) were administered orally with the test drugs [the compounds (a) to (n) of the present invention] and the control drug (indomethacin), each suspended in 5% aqueous gum arabic solution in an amount of 1 ml per 100 g of body weight. An hour later, 0.1 ml of 1% carrageenin was administered subcutaneously into the left hind foot pad. Three hours after the administration of carrageenin, the volume of the foot was determined, and the edema inhibition rate (%) was calculated for the anti-inflammatory effect.
Doses of the test drugs (a) to (l) and the control drug (indomethacin) were each 1 mg/kg, and doses of test drugs (m) and (n) were each 0.5 mg/kg.
(In general: Carrageenan injected into the paw causes an acute inflammation.)

Where [2] appears, read: test drugs 0.5 mg/kg orally once a day for 4 days.
The mark [3] stands for this setting: 1 mg/kg orally, 1 hour before 1% carrageenin, foot volume 3 hours after carrageenin.
Where [4] appears, read: 1 hour before 1% carrageenin, foot volume 3 hours after carrageenin.

Where a name gives a salt, the structure may show the parent alone. Read-outs that look alike come from different tables or passages of the source.

`CS(=O)(=O)Nc1ccc([N+](=O)[O-])cc1Oc1ccccc1` [Control drug, N-(4-nitro-2-phenoxyphenyl)methanesulfonamide, reference compound]: the Inhibition rate in test [1] (control drug, dose not separately stated) amounted to 19.4%.

For the compound `CCCCNCC(=O)Nc1cc(NS(C)(=O)=O)c(Oc2ccccc2)cc1[N+](=O)[O-]` [Example 1, N-[5-(n-butylaminoacetylamino)4-nitro-2-phenoxyphenyl]methanesulfonamide], the Inhibition rate in test [1] (test drugs each 1.0 mg/kg) amounted to 50.6%. In addition, the “Edema Inhibition rate” value with adjuvant arthritis (setting [2]) is given as 61.1%. Further, the inhibition in vivo at 1 mg/kg with carrageenin foot edema (setting [3]) was found to be 34.6%.

With `CCCNCC(=O)Nc1cc(NS(C)(=O)=O)c(Oc2ccccc2)cc1[N+](=O)[O-]` [Example 2, N-[4-nitro-5-(n-propylaminoacetylamino)-2-phenoxyphenyl]methanesulfonamide], the Inhibition rate in test [1] (test drugs each 1.0 mg/kg, listed as b) is 47.5%. In addition, the “Edema Inhibition rate” value in the test on adjuvant arthritis (test drugs 0.5 mg/kg orally once a day for 4 days, listed as b) came to 54.4%. Further, the inhibition in vivo at 1 mg/kg in the test with carrageenin foot edema (setting [3]) was determined as 30.2%.

As for `CS(=O)(=O)Nc1cc(NC(=O)CNC2CC2)c([N+](=O)[O-])cc1Oc1ccccc1` [Example 5], in the test with carrageenin foot edema (setting [3]), the inhibition in vivo at 1 mg/kg was 31.4%.

Turning to `CS(=O)(=O)Nc1cc(NC(=O)CNC2CCCC2)c([N+](=O)[O-])cc1Oc1ccccc1` [Example 7], the inhibition in vivo at 1 mg/kg in the test on carrageenin foot edema (setting [3]) came to 27.8%.

As to `CS(=O)(=O)Nc1cc(NC(=O)CNC2CCCCC2)c([N+](=O)[O-])cc1Oc1ccccc1` [Example 8], the inhibition in vivo at 1 mg/kg with carrageenin foot edema (setting [3]) stood at 32.7%.

Consider `C=CCNCC(=O)Nc1cc(NS(C)(=O)=O)c(Oc2ccccc2)cc1[N+](=O)[O-]` [Example 9], for which, in the test with carrageenin foot edema (setting [3]), the inhibition in vivo at 1 mg/kg was found to be 31.9%.

Consider `CS(=O)(=O)Nc1cc(NC(=O)CNCc2ccccc2)c([N+](=O)[O-])cc1Oc1ccccc1` [Example 10], for which, in the test on carrageenin foot edema (setting [3]), the inhibition in vivo at 1 mg/kg was determined as 35.8%.

Turning to `CNCC(=O)Nc1cc(NS(C)(=O)=O)c(Oc2ccccc2)cc1[N+](=O)[O-]` [Example 20, N-(5-methylaminoacetylamino-4-nitro-2-phenoxyphenyl)methanesulfonamide], the “Edema Inhibition rate” value in the test with adjuvant arthritis (setting [2]) is given as 53.0%. Besides, the inhibition in vivo at 1 mg/kg with carrageenin foot edema (setting [3]) stood at 41.8%.

Turning to `CCNCC(=O)Nc1cc(NS(C)(=O)=O)c(Oc2ccccc2)cc1[N+](=O)[O-]` [Example 21, N-(5-ethylaminoacetylamino-4-nitro-2-phenoxyphenyl)methanesulfonamide], in the test on adjuvant arthritis (setting [2]), the “Edema Inhibition rate” value turned out to be 54.2%. For the same compound, the inhibition in vivo at 1 mg/kg in the test with carrageenin foot edema (setting [3]) worked out at 39.9%.

Turning to `CS(=O)(=O)Nc1cc(NC(=O)CN)c([N+](=O)[O-])cc1Oc1ccccc1` [Example 22, N-(5-aminoacetylamino-4-nitro-2-phenoxyphenyl)methanesulfonamide], the Inhibition rate in test [1] (test drugs each 1.0 mg/kg) was determined as 41.9%. In addition, the “Edema Inhibition rate” value in the test on adjuvant arthritis (setting [2]) is recorded as 52.9%. Besides, the inhibition in vivo at 1 mg/kg in the test with carrageenin foot edema (setting [3]) came to 46.6%.

Turning to `CCCCNCC(=O)Nc1cc(NS(C)(=O)=O)c(Oc2ccccc2)cc1[N+](=O)[O-].Cl` [Example 23, N-[5-(n-butylaminoacetylamino)-4-nitro-2-phenoxyphenyl]methanesulfonamide hydrochloride], the “Edema Inhibition rate” value in the test on carrageenin foot edema (setting [3]) was 25.1%.

Consider `CCCNCC(=O)Nc1cc(NS(C)(=O)=O)c(Oc2ccccc2)cc1[N+](=O)[O-]` [Example 24, N-[4-nitro-5-(n-propylaminoacetylamino)-2-phenoxyphenyl]methanesulfonamidehydrochloride], for which the Inhibition rate in test [1] (test drugs each 1.0 mg/kg, listed as m) turned out to be 52.1%. For the same compound, in the test with adjuvant arthritis (test drugs 0.5 mg/kg orally once a day for 4 days, listed as m), the “Edema Inhibition rate” value is recorded as 53.0%. Also, in the test with carrageenin foot edema (setting [4]), the inhibition in vivo at 0.5 mg/kg stood at 22.4%.

As to `CS(=O)(=O)Nc1cc(NC(=O)CN)c([N+](=O)[O-])cc1Oc1ccccc1` [Example 25, N-(5-aminoacetylamino-4-nitro-2-phenoxyphenyl)methanesulfonamide hydrochloride], the inhibition in vivo at 0.5 mg/kg with carrageenin foot edema (setting [4]) amounted to 27.9%.

With `COc1ccc2c(c1)c(CC(=O)O)c(C)n2C(=O)c1ccc(Cl)cc1` [indomethacin, reference compound], the “Edema Inhibition rate” value in the test on adjuvant arthritis (control drug 1.0 mg/kg orally once a day for 4 days) turned out to be 39.5%. The inhibition in vivo at 1 mg/kg with carrageenin foot edema is 21.4%.

For “N-[2-Cyclohexyloxy-5-(n-propylaminoacetylamino)phenyl]methanesulfonamide [Example 18]”, in the test on carrageenin foot edema (setting [3]), the “Edema Inhibition rate” value amounted to 36.0%.
